Laboratory results taken from PubChem BioAssay AID328 (DTP/NCI, 2004).
Several values for one entry are separate records, joined by “and”; a condition that tells them apart may be missing. Equal entries are not always repeated. Inconclusive results and toxic doses are left out.

System: BDF1 mice, P388 leukemia ip, median survival T/C
Assay: NCI In Vivo Anticancer Drug Screen. Data for tumor model P388 Leukemia (intraperitoneal) in B6D2F1 (BDF1) mice
Conditions: endpoint: median survival time, higher = longer survival
In short: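 Vehicle-dosed animals serve as the reference; survival of compound-dosed, tumour-implanted mice is divided by it.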

[1] = dose: 50.0 mg/kg/injection, schedule: Q01DX009 (ip), vehicle: Klucel (hydroxypropylcellulose) (HPC)
[2] = dose: 50.0 mg/kg/injection, schedule: Q04DX003 (ip), vehicle: water
[3] = dose: 100.0 mg/kg/injection, schedule: Q04DX003 (ip), vehicle: water
[4] = dose: 6.25 mg/kg/injection, schedule: Q04DX003 (ip), vehicle: saline with Tween-80
[5] = dose: 12.5 mg/kg/injection, schedule: Q04DX003 (ip), vehicle: saline with Tween-80
[6] = dose: 25.0 mg/kg/injection, schedule: Q04DX003 (ip), vehicle: saline with Tween-80
[7] = dose: 50.0 mg/kg/injection, schedule: Q04DX003 (ip), vehicle: saline with Tween-80
[8] = dose: 400.0 mg/kg/injection, schedule: Q04DX003 (ip), vehicle: saline with Tween-80
[9] = dose: 50.0 mg/kg/injection, schedule: Q01DX009 (ip), vehicle: saline with Tween-80
[10] = dose: 100.0 mg/kg/injection, schedule: Q04DX003 (ip), vehicle: saline with Tween-80
[11] = dose: 200.0 mg/kg/injection, schedule: Q04DX003 (ip), vehicle: saline with Tween-80
[12] = dose: 12.5 mg/kg/injection, schedule: Q01DX009 (ip), vehicle: saline with Tween-80
[13] = dose: 12.5 mg/kg/injection, schedule: Q04DX003 (ip), vehicle: saline
[14] = dose: 25.0 mg/kg/injection, schedule: Q04DX003 (ip), vehicle: saline
[15] = dose: 50.0 mg/kg/injection, schedule: Q04DX003 (ip), vehicle: saline
[16] = dose: 100.0 mg/kg/injection, schedule: Q01DX009 (ip), vehicle: saline with Tween-80
[17] = dose: 200.0 mg/kg/injection, schedule: Q01DX009 (ip), vehicle: saline with Tween-80
[18] = dose: 25.0 mg/kg/injection, schedule: Q01DX009 (ip), vehicle: saline with Tween-80
[19] = dose: 400.0 mg/kg/injection, schedule: Q01DX009 (ip), vehicle: saline with Tween-80

`CCOC(=O)c1ccc(NC(=O)Nc2c(C)n(C)n(-c3ccccc3)c2=O)cc1` was tested, and the T/C [1] was 100 % of control, the T/C (dose: 100.0 mg/kg/injection, schedule: Q01DX009 (ip), vehicle: Klucel (hydroxypropylcellulose) (HPC)) was 100 % of control and the T/C (dose: 200.0 mg/kg/injection, schedule: Q01DX009 (ip), vehicle: Klucel (hydroxypropylcellulose) (HPC)) was 90 % of control.

`Nc1nccc(NC(c2ccccc2)c2ccccc2)c1N` was tested, and the T/C (dose: 3.0 mg/kg/injection, schedule: Q01DX009 (ip), vehicle: DMSO) was 95 % of control, the T/C (dose: 6.0 mg/kg/injection, schedule: Q01DX009 (ip), vehicle: DMSO) was 100 % of control and the T/C (dose: 12.0 mg/kg/injection, schedule: Q01DX009 (ip), vehicle: DMSO) was 95 % of control. The T/C (dose: 12.5 mg/kg/injection, schedule: Q01DX009 (ip), vehicle: DMSO) was 103 % of control, the T/C (dose: 12.5 mg/kg/injection, schedule: Q04DX003 (ip), vehicle: DMSO) was 95 % of control and the T/C (dose: 25.0 mg/kg/injection, schedule: Q04DX003 (ip), vehicle: DMSO) was 100 % of control. For the same compound, the T/C (dose: 50.0 mg/kg/injection, schedule: Q04DX003 (ip), vehicle: DMSO) was 100 % of control.

In the case of `[O-][n+]1ccccc1Br`, the T/C [2] is reported as 91 % of control and the T/C [3] is reported as 91 % of control.

With `CCC1C/C(=C\NC(N)=O)C(=O)O1` (centres undefined) the T/C [4] was 96 % of control, the T/C [5] was 111 % of control and the T/C [6] was 104 % of control. The T/C [7] was 104 % of control and the T/C [8] was 86 % of control.

In the case of `NC(CSC(c1ccccc1)(c1ccccc1)c1ccc(Cl)cc1)C(=O)O` (centres undefined), the T/C (dose: 33.0 mg/kg/injection, schedule: Q04DX003 (ip), vehicle: saline with Tween-80) is reported as 190 % of control, the T/C [9] is reported as 272 % of control and the T/C [7] is reported as 190 % of control. The T/C (dose: 75.0 mg/kg/injection, schedule: Q04DX003 (ip), vehicle: saline with Tween-80) was 272 % of control.

For `O=C(Nc1cccc(C2=NCCCN2)c1)Nc1ccc(NC(=O)Nc2cccc(C3=NCCCN3)c2)c(Cl)c1`, the T/C (dose: 10.0 mg/kg/injection, schedule: Q01DX009 (ip), vehicle: saline with Tween-80) was 227 % of control, the T/C (dose: 11.0 mg/kg/injection, schedule: Q04DX003 (ip), vehicle: saline with Tween-80) was 182 % of control and the T/C (dose: 17.0 mg/kg/injection, schedule: Q04DX003 (ip), vehicle: saline with Tween-80) was 217 % of control. The T/C (dose: 20.0 mg/kg/injection, schedule: Q01DX009 (ip), vehicle: saline with Tween-80) was 204 % of control, the T/C (dose: 26.0 mg/kg/injection, schedule: Q04DX003 (ip), vehicle: saline with Tween-80) was 195 % of control and 209 % of control and the T/C (dose: 40.0 mg/kg/injection, schedule: Q04DX003 (ip), vehicle: saline with Tween-80) was 272 % of control. For the same compound, the T/C (dose: 60.0 mg/kg/injection, schedule: Q04DX003 (ip), vehicle: saline with Tween-80) was 272 % of control.

`CCN(CC)c1ccc(NC(=O)Nc2ccccc2C)cc1` was tested, and the T/C [10] was 95 % of control, the T/C [11] was 95 % of control and the T/C [8] was 90 % of control.

For `O=C1C=CC(=O)c2cc(Cl)c(Cl)cc21`, the T/C (dose: 3.13 mg/kg/injection, schedule: Q01DX009 (ip), vehicle: saline with Tween-80) was 118 % of control and the T/C [12] was 86 % of control.

For `FC(F)(F)c1ccc2c(c1)N(CCCN1CCN(CCN3CCOCC3)CC1)c1ccccc1S2`, the T/C [13] was 99 % of control and 100 % of control, the T/C [14] was 86 % of control and 99 % of control and the T/C [15] was 104 % of control and 112 % of control.

In the case of `CNCc1c2c(O)c3c(O)c(C)c4c(c3c1O)C(=O)C(C)(O/C=C/C(OC)C(C)C(OC(C)=O)C(C)C(O)C(C)C(O)C(C)/C=C/C=C(/C)C(=O)N2)O4` (centres undefined), the T/C [9] is reported as 100 % of control, the T/C [16] is reported as 89 % of control and the T/C [17] is reported as 116 % of control.

With `[NH-]CC(=O)[N-]CC(=O)O.[NH-]CC(=O)[N-]CC(=O)O.[Ni]` the T/C (dose: 3.0 mg/kg/injection, schedule: Q01DX009 (ip), vehicle: saline) was 100 % of control, the T/C (dose: 6.0 mg/kg/injection, schedule: Q01DX009 (ip), vehicle: saline) was 103 % of control and the T/C (dose: 12.0 mg/kg/injection, schedule: Q01DX009 (ip), vehicle: saline) was 116 % of control. For the same compound, the T/C [13] was 104 % of control, the T/C (dose: 18.0 mg/kg/injection, schedule: Q01DX009 (ip), vehicle: saline) was 110 % of control and the T/C [14] was 109 % of control. The T/C [15] was 100 % of control and 118 % of control.

`CCOC(=O)CCSc1ccccc1` was tested, and the T/C [6] was 98 % of control and the T/C [7] was 95 % of control.

For `Oc1ccc(/C=N/NC(=S)Nc2ccccc2)nc1`, the T/C (dose: 400.0 mg/kg/injection, schedule: Q04DX003 (ip), vehicle: Klucel (hydroxypropylcellulose) (HPC)) was 150 % of control.

In the case of `Clc1nc2nsnc2nc1Cl`, the T/C [4] is reported as 101 % of control, the T/C [12] is reported as 104 % of control and the T/C [5] is reported as 94 % of control and 115 % of control. For the same compound, the T/C [18] was 98 % of control, the T/C [6] was 101 % of control and 107 % of control and the T/C [9] was 107 % of control. The T/C [7] was 97 % of control and 107 % of control, the T/C [16] was 122 % of control and the T/C [10] was 105 % of control. The T/C [17] was 118 % of control, the T/C [11] was 110 % of control and 112 % of control and the T/C (dose: 300.0 mg/kg/injection, schedule: Q04DX003 (ip), vehicle: saline with Tween-80) was 115 % of control. The T/C [19] was 105 % of control.

For `CCC1COC(CC)N1` (centres undefined), the T/C (dose: 50.0 mg/kg/injection, schedule: Q01DX005 (ip), vehicle: saline with Tween-80) was 103 % of control, the T/C (dose: 100.0 mg/kg/injection, schedule: Q01DX005 (ip), vehicle: saline with Tween-80) was 110 % of control and the T/C (dose: 200.0 mg/kg/injection, schedule: Q01DX005 (ip), vehicle: saline with Tween-80) was 120 % of control.

For `CC(=O)N1C2=CCCC3CCCCC23c2ccccc21` (centres undefined), the T/C [9] was 88 % of control and 109 % of control, the T/C [16] was 102 % of control and 104 % of control and the T/C [17] was 93 % of control. The T/C [19] was 112 % of control.

`O=C1OC(c2ccccc2)=C/C1=C/c1ccccc1O` was tested, and the T/C [18] was 109 % of control, the T/C [9] was 91 % of control and the T/C [7] was 104 % of control. The T/C [16] was 97 % of control, the T/C [10] was 109 % of control and the T/C [17] was 97 % of control and 118 % of control. For the same compound, the T/C [11] was 116 % of control, the T/C (dose: 300.0 mg/kg/injection, schedule: Q01DX009 (ip), vehicle: saline with Tween-80) was 108 % of control and the T/C [19] was 113 % of control and 124 % of control. The T/C [8] was 114 % of control and the T/C (dose: 500.0 mg/kg/injection, schedule: Q01DX009 (ip), vehicle: saline with Tween-80) was 122 % of control.

For `O=C1C[C@H]2[C@H](CO)[C@@H](OC(=O)c3ccc(-c4ccccc4)cc3)C[C@H]2O1`, the T/C (dose: 12.5 mg/kg/injection, schedule: Q01DX009 (ip), vehicle: Klucel (hydroxypropylcellulose) (HPC)) was 105 % of control, the T/C (dose: 25.0 mg/kg/injection, schedule: Q01DX009 (ip), vehicle: Klucel (hydroxypropylcellulose) (HPC)) was 115 % of control and the T/C [1] was 105 % of control. The T/C (dose: 75.0 mg/kg/injection, schedule: Q01DX009 (ip), vehicle: saline with Tween-80) was 120 % of control.

For `CC12CCC(=O)C=C1CCC1C2CCC2(C)C(OP(=O)(N3CC3)N3CC3)CCC12` (centres undefined), the T/C [10] was 110 % of control.

With `CCCC1CC[N-]CC1.CCCC1CC[N-]CC1.CCCC1CC[N-]CC1.CCCC1CC[N-]CC1.[Cl][Rh][Cl]` the T/C (dose: 0.35 mg/kg/injection, schedule: Q01DX009 (ip), vehicle: saline) was 122 % of control, the T/C (dose: 0.53 mg/kg/injection, schedule: Q01DX009 (ip), vehicle: saline) was 123 % of control and the T/C (dose: 0.8 mg/kg/injection, schedule: Q01DX009 (ip), vehicle: saline) was 119 % of control. The T/C (dose: 3.0 mg/kg/injection, schedule: Q01DX009 (ip), vehicle: Klucel (hydroxypropylcellulose) (HPC)) was 86 % of control.

For `CC(=O)n1ncc2ccc(N)cc21`, the T/C (dose: 25.0 mg/kg/injection, schedule: Q01DX009 (ip), vehicle: water) was 94 % of control, the T/C (dose: 50.0 mg/kg/injection, schedule: Q01DX009 (ip), vehicle: water) was 96 % of control and the T/C [2] was 103 % of control. The T/C (dose: 100.0 mg/kg/injection, schedule: Q01DX009 (ip), vehicle: water) was 102 % of control, the T/C [3] was 103 % of control and the T/C (dose: 200.0 mg/kg/injection, schedule: Q01DX009 (ip), vehicle: water) was 99 % of control. The T/C (dose: 200.0 mg/kg/injection, schedule: Q04DX003 (ip), vehicle: water) was 101 % of control and the T/C (dose: 400.0 mg/kg/injection, schedule: Q04DX003 (ip), vehicle: water) was 120 % of control.

In the case of `CC(=O)N/N=C\C1=CCC=C(Br)S1`, the T/C [9] is reported as 90 % of control and the T/C [16] is reported as 104 % of control.
